# Measured values reported in patent US12378234B2, “Crystalline polymorphs of a 1-thiazol-2-yl-pyrazole-5-carboxylic acid derivative” (Bantam Pharmaceutical, LLC, priority 2019, dated 2025).
# Key:
# Assay type in all cases: physicochemical
# [1] = Physical and chemical stability under stressed conditions (HPLC, XRPD); conditions: 40° C./75% RH for 1 week
# Description: Physical and chemical stability evaluation has been performed for crystalline polymorph Form 1 under stressed conditions. In the experiments, about 10 mg of the polymorph was placed into 4 ml glass vials that were stored under 40° C./75% RH for 1 week. HPLC was utilized to evaluate the degradation, and XPRD was used to evaluate the crystalline polymorph.
# [2] = Slurry conversion (competitive) experiments for thermodynamic stability relationship; conditions: slurry of Form 1:Form 5 (1:1) in H2O:acetone (9:1) or H2O:ethanol (3:1), room temperature, 2 or 3 days
# Description: To determine the thermodynamic stability relationship between Form 1 and Form 5, slurry conversion experiments were conducted. Specifically, Form 1 sample was added to 1.0 mL H2O:acetone (9:1 v:v) or 0.8 mL of H2O:ethanol (3:1 v:v) at room temperature. After equilibrium for 1 hr, the suspensions were filtered to obtain a saturated solution Form 1. To each saturated solution of Form 1:Form 5 (1:1) was added. After stirring at room temperature for 2 or 3 days, the solids were isolated for XRPD analysis.
# To determine the thermodynamic stability relationship between Form 11 and Form 12, slurry conversion experiments were conducted. Specifically, Form 12 (2.5 mg) was added to 1.0 mL of 4% dichloromethane at room temperature. After equilibrium for 1 hour, the suspensions were filtered to obtain a saturated solution Form 12. To the saturated solution of Form 11:Form 12 (1:1) was added. After stirring at room temperature for 30 minutes, the solids were isolated for XRPD analysis. […] The pH of Form 11 solution (2.5 mg in 1 mL of 4% dichloromethane) and Form 12 solution (2.5 mg in 1 mL of 4% dichloromethane) was measured to be 8.25 and 7.98, respectively.
# [3] = Solubility of crystalline polymorph in biologically relevant media (water, SGF, FaSSIF, FeSSIF), HPLC of supernatant, pH, XRPD of remaining solids; conditions: for solubility at 1 h / solubility at 4 h / solubility at 24 h: thermodynamic from solid, 37° C.; for pH: solubility test
# Description: The solubility of crystalline polymorph Form 1 was tested in biologically relevant media: water, simulated gastric fluid (SGF), fasted state simulated intestinal fluid (FaSSIF) and fed state simulated intestinal fluid (FeSSIF). For example, the crystalline polymorph was suspended in the solvent with stirring at 400 rpm at 37° C. for 1 h, 4 h and 24 h followed by filtration. The supernatant concentration was measured by HPLC (Mobile phase A: 0.1% NH3 in H2O, Mobile phase B: acetonitrile; flow rate: 0.8 mL/min; injection volume: 5 μL). The remaining solids were tested by XRPD.
# The solubility of crystalline polymorph Form 11 was tested in biologically relevant media: water, SGF, FaSSIF, and FeSSIF. For example, the crystalline polymorph was suspended in the solvent with stirring at 400 rpm at 37° C. for 1 h, 4 h and 24 h followed by filtration. The supernatant was measured by HPLC for concentration and the remaining solids were tested by XRPD.
# [4] = Dynamic vapor sorption (DVS)
# Description: TGA and DSC measurements indicated weight loss of 0.1% at 150° C. and an endothermic peak at 120.0° C.
# Dynamic Vapor Sorption (DVS) was measured with a SMS DVS Intrinsic from Surface Measurement Systems (London, United Kingdom) using the following parameters: temperature: 25° C.; sample size: 10-20 mg; gas and flow rate: N2 and 200 mL/min; dm/dt: 0.002%/min; min. dm/dt stability duration: 10 min; max. equilibrium time: 180 min; relative humidity (RH) range: 0% RH-95% RH-0% RH; RH step size: 10%.
compound,measurement,setting,value
"Cc1nn(-c2nc(C3=CCC(C(F)(F)F)CC3)c(SC(C)C)s2)c(C(=O)O)c1-c1cccc(F)c1 (stereo not drawn) [Form 1, 4-(3-fluorophenyl)-1-(5-(isopropylthio)-4-(4-(trifluoromethyl)cyclohex-1-en-1-yl)thiazol-2-yl)-3-methyl-1H-pyrazole-5-carboxylic acid]",physical and chemical stability,[1],physically stable
same,thermodynamic stability relationship between Form 1 and Form 5,[2],more thermodynamically stable than Form 5
same,Form change by XRPD of remaining solids,[3]; after solubility test in FaSSIF,one unknown peak was observed at about 31 2θ degrees
same,Form change by XRPD of remaining solids,[3]; after solubility test in FeSSIF,no form change was observed
same,Form change by XRPD of remaining solids,[3]; after solubility test in SGF,no form change was observed
same,Form change by XRPD of remaining solids,[3]; after solubility test in water,no form change was observed
same,solubility at 1 h,"[3]; fasted state simulated intestinal fluid (FaSSIF), FaSSIF, 1 hr",140 µg/mL
same,solubility at 4 h,"[3]; fasted state simulated intestinal fluid (FaSSIF), FaSSIF, 4 hr",220 µg/mL
same,solubility at 24 h,"[3]; fasted state simulated intestinal fluid (FaSSIF), FaSSIF, 24 hr",200 µg/mL
same,solubility at 1 h,"[3]; fed state simulated intestinal fluid (FeSSIF), FeSSIF, 1 hr",170 µg/mL
same,solubility at 4 h,"[3]; fed state simulated intestinal fluid (FeSSIF), FeSSIF, 4 hr",180 µg/mL
same,solubility at 24 h,"[3]; fed state simulated intestinal fluid (FeSSIF), FeSSIF, 24 hr",140 µg/mL
same,solubility at 1 h,"[3]; simulated gastric fluid (SGF), simulated gastric fluid, SGF, 1 hr",50 µg/mL
same,solubility at 4 h,"[3]; simulated gastric fluid (SGF), simulated gastric fluid, SGF, 4 hr",30 µg/mL
same,solubility at 24 h,"[3]; simulated gastric fluid (SGF), simulated gastric fluid, SGF, 24 hr",30 µg/mL
same,pH,"[3]; FaSSIF, 1 hr",6.55
same,pH,"[3]; FaSSIF, 4 hr",5.75
same,pH,"[3]; FaSSIF, 24 hr",5.12
same,pH,"[3]; FeSSIF, 1 hr",5.07
same,pH,"[3]; FeSSIF, 4 hr",5.06
same,pH,"[3]; FeSSIF, 24 hr",4.94
same,pH,"[3]; H2O, 1 hr",7.00
same,pH,"[3]; H2O, 4 hr",7.82
same,pH,"[3]; H2O, 24 hr",6.68
same,pH,"[3]; SGF, 1 hr",1.93
same,pH,"[3]; SGF, 4 hr",1.75
same,pH,"[3]; SGF, 24 hr",1.83
same,solubility at 1 h,"[3]; water, H2O, 1 hr",490 µg/mL
same,solubility at 4 h,"[3]; water, H2O, 4 hr",1300 µg/mL
same,solubility at 24 h,"[3]; water, H2O, 24 hr",1700 µg/mL
same,water uptake (DVS),[4]; 25° C./80% relative humidity,0.6%
same,form change before and after DVS,"[4]; XRPD, FIG. 1E",no form change was observed
same,hygroscopicity,[4]; from DVS at 25° C./80% relative humidity,slightly hygroscopic
